Results on 4 compounds are retold here after article PMC7679302 (Environmental Science and Pollution Research International, 2020).

Marks after values point to notes of the source that are not given here.

Data set [1] relates to D. magna. The arrangement: method as in Haeba et al. [2008]. The note with it: ref Haeba et al. [2008], cited from earlier work.
The nature of data set [2]: Acute 48 h aqueous toxicity test with glochidia (viability). The class given is in vivo, Lampsilis siliquoidea. Particulars: Lampsilis siliquoidea, in vivo, other: aqueous (water-only) exposure, 48-h aqueous exposure, n = 4, read-out: Viability (mean, % (standard deviation)). The text has this:
(§1) Aqueous acute toxicity tests were based on the American Society for Testing and Materials (ASTM [2013]) protocols for conducting toxicity tests with early life stages of freshwater mussels. Gravid female L. siliquoidea were collected from an established reference site in the Maitland River (ON) and kept in ECCC’s Aquatic Life Research Facility (Canada Centre for Inland Waters, Burlington, ON). Glochidia were removed from gravid females and their viability (i.e., ability to close their valves) was assessed. Glochidia from a minimum of three gravid mussels whose glochidia exceeded 90% viability were pooled and exposed to a geometric series of nominal concentrations (0, 0.0025, 0.025, 0.25, 2.5, 25 mg/L) of either FIN or MGA plus a solvent control. Tests were conducted in 250-mL glass beakers (unaerated and unfed) with culture water. After 24 and 48 h of exposure, glochidia viability was assessed in a minimum of 100 glochidia per replicate (four replicates). Water samples were collected at the beginning and end of the tests, and frozen pending chemical analysis.

Data set [3] relates to Lampsilis siliquoidea glochidia. The data set is described as above. The class given is in vivo. The note with it: for Viability (mean, % (standard deviation)): 48-h aqueous exposure, n = 4.
Text: as §1

The subject of the next data set is amphipod Hyalella azteca. Put plainly: Chronic 42-day sediment test with amphipods (survival, growth, reproduction, sex ratio). Here is the method: Dechlorinated municipal tap water was used for cultures and toxicity tests. Both cultures and toxicity tests were held at 25 °C with a photoperiod of 16 h light:8 h dark, and amphipods were fed finely ground Tetra-Min fish food flakes (Tetra GMBH, Melle, Germany). Juvenile amphipods were removed weekly from breeding containers and used in toxicity tests.
Two tests were conducted for each compound. Amphipods were fed ground Tetra-Min twice per week during weeks 1 and 2, three times during week 3, and 5 mg three times per week during weeks 4 to 6. Surviving adults were counted, weighed as a group, and examined under a dissecting microscope to identify males (enlarged second gnathopods) and females, and the number of juveniles was recorded.

Data set [4] concerns juvenile mussels L. siliquoidea. Put plainly: 21 d range-finding sediment test, juvenile mussels. Type of data set: in vivo. The protocol: (§2) Range-finding tests of 21 d were completed with juvenile mussels, amphipods and mayflies to assist with the selection of the concentrations to be used in final testing. Nominal concentrations in range-finding tests were 0.1, 1, 10, 100, and 1000 mg/kg, based on dry weight of sediment. Range-finding test conditions were identical to those described in the manuscript for chronic sediment tests with the exception of test duration.
After 21 d, mussels were recovered and transferred to Petri dishes filled with clean sand and housed in large trays of aerated culture water to assess burial ability.

The subject of a further data set is amphipods H. azteca. As to the kind of experiment: 21 d range-finding sediment test, amphipods. The class given is in vivo, Hyalella azteca. Particulars: n = 3. The protocol: as §2
Amphipods were fed 2.5 mg Tetra-min twice per week during weeks one and two, and three times during week three. At the end of the test, amphipods were removed and the survivors were counted and weighed.

Another data set concerns mayflies Hexagenia spp. As to the kind of experiment: 21 d range-finding sediment test, mayflies. Type of data set: in vivo. Particulars: n = 3. Here is the method: as §2
At the end of the test, survival and wet weight of mayflies in each replicate were recorded.

Data set [5] has as its system mayfly Hexagenia spp. The note with it: Hexagenia spp. (mixture of H. rigida and H. limbata), in vivo, 42 days, pH 8.3.
Experimental: (§3) Nominal concentrations were 10, 30, 100, 300, and 1000 mg/kg for juvenile freshwater mussels and 3, 10, 30, 100, and 300 mg/kg for amphipods and mayflies, and were based on the results of range-finding tests (detailed in Supplementary Materials). […] For each PPCP, the concentration of solvent used was consistent across treatments.
(§4) The sediments were mixed for 24 h, left open in a fume hood for 3–5 days for the acetone to evaporate, and then stored at 4 °C until use. […] All beakers were aerated for 1 week under testing conditions prior to the addition of organisms, and throughout the tests. Duration of toxicity tests varied depending on the species and endpoint of interest (see below). Water quality parameters were collected for each test (Table S1).
(§5) Briefly, eggs of Hexagenia spp. […] Prior to testing, eggs were hatched and nymphs were grown in aerated 20-L aquaria containing culture sediment (depth: 2.5 cm) and culture water (depth: 10 cm) for 6 to 7 weeks.
(§6) Ten mayflies (5–8 mg wet weight) were added to each beaker (three replicates for each control and PPCP concentration). Two tests were conducted for each compound. […] At the end of the test, mayflies were removed and surviving animals from each of the three replicates were counted and weighed.
The test system of data set [6] is goldfish (Carassius auratus). The arrangement: method as in Upjohn Company [1996]. Particulars: 1 mg/L MGA for 21 days; ref Upjohn Company [1996]; cited from earlier work.
For data set [7], the system named is African clawed frog (Xenopus laevis) larvae. The arrangement: method as in Finch et al. [2013]. Particulars: chronic exposure to 100 ng/L MGA; ref Finch et al. [2013]; cited from earlier work.
The conditions of data set [8]: natural and simulated sunlight; ref Qu et al. [2012]; cited from earlier work.
For data set [9], the system named is mayfly Hexagenia spp. As to the kind of experiment: Chronic 42-day sediment test with mayflies (survival, growth). The note with it: measured, n = 6.
Experimental: as §3, §4, §5, §6
For data set [10], the system named is glochidia of L. siliquoidea. The arrangement: method as in Gilroy et al. ([2017]). The note with it: ref Gilroy et al. ([2017]); cited from earlier work.
For another data set, the system named is juvenile L. siliquoidea. The arrangement: method as in Gilroy et al. ([2017]). The note with it: ref Gilroy et al. ([2017]); cited from earlier work.
The subject of data set [11] is D. magna. The note with it: ref Minguez et al. ([2014]); cited from earlier work.
Setting [12] is: Hyalella azteca, in vivo, 42 days, pH 8.3.
Setting [13] is: 0.1 mg/kg dry weight nominal, n = 3.
The mark [14] stands for this setting: 1 mg/kg dry weight nominal, n = 3.
The mark [15] stands for this setting: 10 mg/kg dry weight nominal, n = 3.
Setting [16] is: 100 mg/kg dry weight nominal, n = 3.

As to `CC(C)C(=O)Nc1ccc([N+](=O)[O-])c(C(F)(F)F)c1` [flutamide], the “Effect on maturation and embryonic development” value in the data set with D. magna [1] (concentrations up to 1 mg/L) was “delayed the maturation of female D. magna and inhibited the embryonic development of neonates”. For the same compound, the “48-h EC50 for immobilization” value in the data set on D. magna [1] is 2.7 µg/mL.
Broadly, the viability is a read-out of living cells in per cent, often relative to untreated cells. On to `C=C1C[C@H]2[C@@H]3C=C(C)C4=CC(=O)CC[C@]4(C)[C@H]3CC[C@]2(C)[C@@]1(OC(C)=O)C(C)=O` [Melengestrol acetate], for which the viability at 48 h, 0.005 mg/L in data set [2] (0.005 mg/L mean measured) worked out at 86%. The viability at 48 h, 0.05 mg/L in [2] (0.05 mg/L mean measured) came to 82%. The viability at 48 h, 0.3 mg/L in data set [2] (0.3 mg/L mean measured) was 85%. In addition, the viability at 48 h, 1.9 mg/L in [2] (1.9 mg/L mean measured) amounted to 82%. Further, the viability at 48 h, 4 mg/L in [2] (4 mg/L mean measured) came out at 70%. This compound also gave a Decrease in viability in data set [3] (4 mg/L MGA, water-only) of 20%. For the same compound, the “Viability (mean, % (standard deviation))” value is 82 (2.1)^b % in [3] (0.05 mg/L mean measured) and 82 (3.3)^b % in [3] (1.9 mg/L mean measured). Moreover, in data set [3] (Lampsilis siliquoidea, in vivo, 48 h), the NOEC is recorded as 1.9 mg/L^b. Moreover, the “ChV (geometric mean of NOEC and LOEC)” value in [3] (viability, acute 48 h) was found to be 2.8 mg/L. Also, the “ChV, sediment” value is listed as 53 mg/kg with amphipod Hyalella azteca (setting [12]) and 21 mg/kg with mayfly Hexagenia spp. [5]. In addition, the “LOEC, overlying water” value with amphipod Hyalella azteca (setting [12]) is 0.5 mg/L; in the data set on mayfly Hexagenia spp. [5], 0.25 mg/L. Further, the entries for the “LOEC, sediment” value with amphipod Hyalella azteca (setting [12]) and in the data set with mayfly Hexagenia spp. [5] were 76 mg/kg and 37 mg/kg, respectively. Further, the “NOEC, overlying water” value in the data set with amphipod Hyalella azteca (setting [12]) was 0.25 mg/L; in the data set with mayfly Hexagenia spp. [5], 0.04 mg/L. Besides, in the data set with amphipod Hyalella azteca (melengestrol acetate 76 mg/kg dw sediment (0.5 mg/L water), measured, 42-day, n = 10), the “Females (percent of surviving amphipods), mean (SEM)” value is 60 (4.5) %. Also, the “NOEC, sediment” value amounted to 37 mg/kg with amphipod Hyalella azteca (survival, growth, 42-day, dry weight sediment, measured) and 12 mg/kg with mayfly Hexagenia spp. [5]. The “Burial (%), mean (SEM)” value in data set [4] (setting [13]) is on record as 85 (4.8) %; in data set [4] (setting [14]), 97 (7.0) %; in [4] (setting [15]), 90(5.8) %; in data set [4] (setting [16]), 90 (0.0) %; in data set [4] (1000 mg/kg dry weight nominal, n = 3), 68 (5.8) %. Moreover, the “Survival (%), mean (SEM)” value in data set [4] (setting [13]) is reported as 93 (3.3) %; in data set [4] (setting [14]) it was 97 (3.3) %; in data set [4] (setting [15]) it was 97 (3.3) %; in data set [4] (setting [16]), 100 (0.0) %; in data set [4] (1000 mg/kg dry weight nominal, n = 3, 1000 mg/kg) it was 77 (8.8) %; in the data set with amphipods H. azteca (0.1 mg/kg dry weight nominal), 100 (3.8) %. The “Survival (%), mean (SEM)” value was 100 (0.0) % in the data set on amphipods H. azteca (1 mg/kg dry weight nominal); 95 (2.2) % with amphipods H. azteca (10 mg/kg dry weight nominal); 95 (2.2) % in the data set with amphipods H. azteca (100 mg/kg dry weight nominal); 0^a (0.0) % in the data set with amphipods H. azteca (1000 mg/kg dry weight nominal); 100 (0.0) % with mayflies Hexagenia spp. (0.1 mg/kg dry weight nominal); 97 (3.3) % in the data set on mayflies Hexagenia spp. (1 mg/kg dry weight nominal). Further, the “Survival (%), mean (SEM)” value was 100 (0.0) % in the data set on mayflies Hexagenia spp. (10 mg/kg dry weight nominal), 100 (0.0) % with mayflies Hexagenia spp. (100 mg/kg dry weight nominal) and 37^a (8.8) % in the data set with mayflies Hexagenia spp. (1000 mg/kg dry weight nominal). The “Growth, mean (SEM)” value in the data set on amphipods H. azteca (0.1 mg/kg dry weight nominal) is on record as 1.0 (0.09) mg wet weight; in the data set with amphipods H. azteca (1 mg/kg dry weight nominal), 1.0 (0.07) mg wet weight; with amphipods H. azteca (10 mg/kg dry weight nominal), 1.1 (0.10) mg wet weight; in the data set on amphipods H. azteca (100 mg/kg dry weight nominal) it was 0.7 (0.15) mg wet weight; in the data set on mayflies Hexagenia spp. (0.1 mg/kg dry weight nominal), 33 (0.2) mg wet weight; in the data set with mayflies Hexagenia spp. (1 mg/kg dry weight nominal), 30 (0.9) mg wet weight. Also, the “Growth, mean (SEM)” value in the data set with mayflies Hexagenia spp. (10 mg/kg dry weight nominal) is 31 (1.2) mg wet weight; with mayflies Hexagenia spp. (100 mg/kg dry weight nominal) it was 20^a (0.7) mg wet weight; in the data set on mayflies Hexagenia spp. (1000 mg/kg dry weight nominal), 7.4^a (0.24) mg wet weight. Besides, the “ChV, overlying water” value in the data set on mayfly Hexagenia spp. [5] was 0.1 mg/L. The Toxicity result in [6] is given as “No toxicity was observed”. Also, the “Larval size (length and weight) vs controls” value in [7] is given as “significantly smaller”. In data set [7], the “Mortality or developmental effects” value is listed as “no mortality or developmental effects were observed”. Also, the Direct photolysis half-life entry in data set [8] is listed as “approximately 45 min”. Further, the “Survival (percent of initial animals added), mean (SEM)” value with mayfly Hexagenia spp. [9] (melengestrol acetate 1 mg/kg dw sediment (0.002 mg/L water)) is given as 95 (2.2) %; in the data set with mayfly Hexagenia spp. [9] (melengestrol acetate 12 mg/kg dw sediment (0.04 mg/L water)), 90 (2.6) %; in the data set on mayfly Hexagenia spp. [9] (melengestrol acetate 37 mg/kg dw sediment (0.25 mg/L water)), 93 (2.1) %; in the data set with mayfly Hexagenia spp. [9] (melengestrol acetate 76 mg/kg dw sediment (0.5 mg/L water)), 92 (4.0) %.
With `CN(C)CCC=C1c2ccccc2CCc2ccccc21` [amitriptyline], the “24-h LC50” value in [10] is 0.3 µg/mL. Moreover, the “14-day LC50” value in the data set on juvenile L. siliquoidea was 0.4 µg/mL. In addition, the “48-h EC50” value in the data set with D. magna [11] is 4.8 µg/mL.
For the compound `CN[C@H]1CC[C@@H](c2ccc(Cl)c(Cl)c2)c2ccccc21` [sertraline], in data set [10], the “24-h LC50” value is 0.06 µg/mL. Besides, the “28-day LC50” value in the data set with juvenile L. siliquoidea was 0.04 µg/mL.
